Series [1] concerns the target T1, Bovine lens aldose reductase (Bos taurus, UniProt P16116).
T1 construct: Bovine lens aldose reductase was separated and partially purified; from tissue; host or cells: bovine lens
As to the kind of experiment: Inhibition of Aldose reductase. It counts as biochemical. Particulars: for inhibition at 5 µg/mL: read-out: Inhibition at 5 μg/ml. Here is the method: Bovine lens aldose reductase was separated and partially purified by the method of S. Hyman and J. H. Kinoshita [J. Biol. Chem., 240, 877 (1965)] and K. Inagaki, I. Miwa and J. Okuda [Arch. Biochem. Biophys., 316, 337 (1982)], and its activity was determined photometrically by the method of Varma et al. [Biochem. Pharmac., 25, 2505 (1976)]. […]

The test system of series [2] is blood glucose level (BGL). As to the kind of experiment: Hypoglycemic activity (blood glucose lowering rate) in hyperglycemic KK mice. It counts as in vivo, male mice of the KK strain. Particulars: Mus musculus, oral, 18 hours. Here is the method:
The test animals used were hyperglycemic male mice of the KK strain, each having a body weight more than 40 g. Each animal was orally administered a test compound in the amount shown in the following Table 8 and then allowed to feed freely for 18 hours. At the end of this time, blood was collected from the tail veins without anesthesia. The blood glucose level (BGL) was determined by means of a glucose analyzer (GL-101, manufactured by Mitsubishi Kasei Co. or Glucoroder manufactured by Shino Test Co.).
The blood glucose lowering rate was calculated by the following equation:
Blood glucose lowering rate (%)=
BGLs is the BGL in the group administered a solvent only, but no active compound; and
BGLt is the BGL in the group administered a test compound.
The results are shown in the following Table 8, in which each compound of the present invention is identified by the number of one of the following Examples in which its preparation is illustrated.

Series [3] can be described thus: Toxicity, oral administration for 2 weeks. It counts as in vivo, male F344 rats. Particulars: 50 mg/kg; for mortality rate: male F344 rats, oral, 2 weeks. The method, then: The toxicity of the compounds of the present invention was tested on male F344 rats, divided into groups of 5. The test compound was adminstered orally to each test animal at a dose of 50 mg/kg of body weight for 2 weeks. The test compounds used were those of Examples 20, 45 (polar, less polar) and 47 (polar).

Consider 11 compounds from patent US5578620A, “Thiazolidine and oxazolidine derivatives, their preparation and their medical use” (Sankyo Company, Limited, priority 1994, dated 1996).

Usually IC50 stands for the midpoint of a concentration-inhibition curve. Higher therefore signals a need for much substance. Broadly, the inhibition in vivo is the percentage by which the read-out fell short of the control. Read a low inhibition in vivo as a response near the control.

Consider `COc1ccc(OCC2CN(C(C)COc3ccc(CC4SC(=O)NC4=O)cc3)C(=O)O2)cc1` (single isomer, unassigned) [31 (less polar), 5-{4-[2-(5-4'-Methoxyphenoxymethyl-2-oxooxazolidin-3-yl)propoxy]benzyl}thiazolidine-2,4-dione], for which, in series [1], the IC50 was 3.91 µM and the inhibition at 5 µg/mL turned out to be 67.8%. In series [2], this compound registered an inhibition in vivo at 1 mg/kg of 21.6%.
As to `CC(COc1ccc(CC2SC(=O)NC2=O)cc1)N1CC(COc2cccc(Cl)c2)OC1=S` (single isomer, unassigned) [Example 45 (less polar), 5-{4-[2-(5-3'-Chlorophenoxymethyl-2-thioxooxazolidin-3-yl)propoxy]benzyl}thiazolidine-2,4-dione], the mortality rate entry in series [3] is given as “zero”. Besides, in series [3] (rat, in vivo, po), the “abnormalities observed during 2 successive weeks” value is reported as “no abnormalities which could be attributed to the test coumpounds” and the “hematological examinations (red blood cell counts)” value is “slighly decrease in red blood cell counts”. The compound also returned an inhibition in vivo at 1 mg/kg in series [2] of 27.2%.
With `CC(COc1ccc(CC2SC(=O)NC2=O)cc1)N1CC(COc2cccc(Cl)c2)OC1=S` (stereo not shown) [45 (polar), 5-{4-[2-(5-3'-Chlorophenoxymethyl-2-thioxooxazolidin-3-yl)propoxy]benzyl}thiazolidine-2,4-dione], the mortality rate entry in series [3] is “zero”. Further, the “abnormalities observed during 2 successive weeks” value in series [3] (rat, in vivo, po) is listed as “no abnormalities which could be attributed to the test coumpounds”. Moreover, the inhibition in vivo at 1 mg/kg in series [2] came to 23.9%.
Take `CCC(COc1ccc(CC2SC(=O)NC2=O)cc1)N1CC(COc2cccc(Cl)c2)OC1=O` (stereo not shown) [47 (polar), 5-{4-[2-(5-3'-Chlorophenoxymethyl-2-oxooxazolidin-3-yl)butoxy]benzyl}thiazolidine-2,4-dione]: the mortality rate result in series [3] is given as “zero”. Besides, the “abnormalities observed during 2 successive weeks” value in series [3] (rat, in vivo, po) is reported as “no abnormalities which could be attributed to the test coumpounds”. Moreover, in series [1], the IC50 was 0.455 µM and the inhibition at 5 µg/mL was 86.6%. The compound also had an inhibition in vivo at 1 mg/kg in series [2] of 34.7%.
In the case of `CC(COc1ccc(CC2SC(=O)NC2=O)cc1)N1CC(COc2cccc(Cl)c2)OC1=O` (stereo not shown) [Example 1, 5-{4-[2-(5-3'-Chlorophenoxymethyl-2-oxooxazolidin-3-yl)propoxy]benzyl}thiazolidine-2,4-dione], in series [1], half-maximal inhibition (IC50) required 0.224 µM and the inhibition at 5 µg/mL came out at 89.6%. The compound further showed an inhibition in vivo at 1 mg/kg in series [2] of 28.5%.
In the case of `CC(COc1ccc(CC2SC(=O)NC2=O)cc1)NCC(O)COCCCCc1ccccc1` (stereo not shown) [Example 19, 5-{4-[2-(3-4'-Phenylbutoxy-2-hydroxypropylamino)propoxy]benzyl}thiazolidine-2,4-dione], in series [1], inhibition was half-maximal at 8.01 µM (IC50) and the inhibition at 5 µg/mL is 56.1%. Further, in series [2], the inhibition in vivo at 1 mg/kg is 15.8%.
In the case of `CC(COc1ccc(CC2SC(=O)NC2=O)cc1)NCC(O)COCCCCCCc1ccccc1` (stereo not shown) [Example 20, 5-{4-[2-(3-6'-Phenylhexyloxy-2-hydroxypropylamino)propoxy]benzyl}thiazolidine-2,4-dione], in series [3], the mortality rate entry was “zero”. Besides, the “abnormalities observed during 2 successive weeks” value in series [3] (rat, in vivo, po) is “no abnormalities which could be attributed to the test coumpounds”. In addition, in series [1], the IC50 is 3.5 µM and the inhibition at 5 µg/mL is 69.1%. Testing at 1 mg/kg in series [2] gave an inhibition in vivo of 37.9%.
For `CC(COc1ccc(CC2SC(=O)NC2=O)cc1)N1CC(COCc2ccccc2)OC1=O` (stereo not shown) [Example 22, 5-{4-[2-(5-Benzyloxymethyl-2-oxooxazolidin-3-yl)propoxy]benzyl}thiazolidine-2,4-dione], in series [1], the IC50 was 3.61 µM and the inhibition at 5 µg/mL amounted to 70.1%. The compound further returned an inhibition in vivo at 1 mg/kg in series [2] of 14.3%.
For `CC(COc1ccc(CC2SC(=O)NC2=O)cc1)N1CC(COCCCCCCCc2ccccc2)OC1=O` (stereo not shown) [Example 29, 5-{4-[2-(5-7'-Phenylheptyloxymethyl-2-oxooxazolidin-3-yl)propoxy]benzyl}thiazolidine-2,4-dione], the inhibition in vivo at 1 mg/kg in series [2] was found to be 18.1%.
As to `CC(COc1ccc(CC2SC(=O)NC2=O)cc1)N1CC(COc2ccc(-c3ccccc3)cc2)OC1=O` (stereo not shown) [Example 35, 5-{4-[2-(5-4'-Phenylphenoxymethyl-2-oxooxazolidin-3-yl)propoxy]benzyl}thiazolidine-2,4-dione], the inhibition in vivo at 1 mg/kg in series [2] is 13.5%.
As to `CC(COc1ccc(CC2SC(=O)NC2=O)cc1)NCC(O)COCc1cccc(Cl)c1` (stereo not shown) [Example 41, 5-{4-[2-(3-3'-Chlorobenzyloxy-2-hydroxypropylamino)propoxy]benzyl}thiazolidine-2,4-dione], in series [1], the IC50 was 6.68 µM and the inhibition at 5 µg/mL worked out at 57.4%. Besides, the inhibition in vivo at 1 mg/kg in series [2] came out at 18.2%.
